{
  "source": "patent US12428394B2",
  "about": "“2,4-disubstituted pyrimidine derivative, preparation method therefor and use thereof” (CHENGDU ZENITAR BIOMEDICAL TECHNOLOGY CO., LTD., priority 2019, dated 2025)",
  "key": {"[1]": {"test_system": "MOLM-13 cells (FLT3-ITD-/+)", "test": "Inhibition of cell proliferation by MTT experiment, MOLM-13", "format": "cell-based, human", "conditions": "Homo sapiens, MOLM-13, 72 h, read-out: IC50 value on cell proliferation inhibition, MOLM-13 FLT3-ITD-/+", "summary_of_the_method": "(§1)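 MTT assay in MV4-11, MOLM-13 (FLT3-ITD) and SET-2 (JAK2 V617F) cells at 10,000–15,000 cells/well in IMDM with 10% FBS. Cells are exposed to compound for 72 h at 37 °C, then to MTT for 1–3 h. IC50 is fitted from inhibition rates across concentrations.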"}, "JAK2": {"target": "T1, JAK2 (Homo sapiens, UniProt O60674)", "T1 construct": "purchased Eurofins", "test": "In vitro kinase activity experiment, JAK2", "format": "biochemical", "conditions": "inhibition rate of enzyme at 500 nM; measured by Eurofins", "summary_of_the_method": "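Radiometric filter-binding assay: kinase, its substrate and compound in 8 mM MOPS pH 7.0, 0.2 mM EDTA, 10 mM MnCl2, with 10 mM magnesium acetate and γ33P-ATP; MgATP started the reaction, 40 min at room temperature. Stopped with 3% phosphate, spotted on Filtermat A, washed, scintillation counted.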"}, "SET-2 cells (JAK2 V617F)": {"test_system": "SET-2 cells (JAK2 V617F)", "test": "Inhibition of cell proliferation by MTT experiment, SET-2", "format": "cell-based", "conditions": "Homo sapiens, SET-2, 72 h, read-out: IC50 value on cell proliferation inhibition, SET-2 (V617F)", "summary_of_the_method": "as §1"}, "SET-2 cells": {"test_system": "SET-2 cells", "format": "in vivo", "conditions": "for Tumor inhibition rate (%): SET-2 model, oral", "protocol": "(§2) MV4-11 cells and SET-2 cells were used to establish a mouse xenograft model to investigate the efficacy. NOD/SCID immunocompromised mice (purchased from Beijing Huafukang Biotechnology Co., Ltd.) were received and acclimated to the environment until they were normalized in diet and activity. MV4-11 and SET-2 cells were routinely incubated and grew to 80% fusion degree. Then, the cells were collected and counted on a blood cell counting plate, with the cell concentration adjusted to 3×10^7 cells/mL. After the cells were collected, 100 μL of cell suspension was inoculated subcutaneously on the back of mice. When the tumor volume reached 100 mm^3, the drug administration was started. The dosage regimen was oral administration every day. […]."}, "MV4-11 cells": {"test_system": "MV4-11 cells", "format": "in vivo", "conditions": "for Tumor inhibition rate (%): MV4-11 model, oral, QD × 6", "protocol": "as §2"}, "JAK1": {"target": "T2, JAK1 (Homo sapiens, UniProt P23458)", "T2 construct": "purchased Eurofins", "T2 sequence (P23458 whole entry)": "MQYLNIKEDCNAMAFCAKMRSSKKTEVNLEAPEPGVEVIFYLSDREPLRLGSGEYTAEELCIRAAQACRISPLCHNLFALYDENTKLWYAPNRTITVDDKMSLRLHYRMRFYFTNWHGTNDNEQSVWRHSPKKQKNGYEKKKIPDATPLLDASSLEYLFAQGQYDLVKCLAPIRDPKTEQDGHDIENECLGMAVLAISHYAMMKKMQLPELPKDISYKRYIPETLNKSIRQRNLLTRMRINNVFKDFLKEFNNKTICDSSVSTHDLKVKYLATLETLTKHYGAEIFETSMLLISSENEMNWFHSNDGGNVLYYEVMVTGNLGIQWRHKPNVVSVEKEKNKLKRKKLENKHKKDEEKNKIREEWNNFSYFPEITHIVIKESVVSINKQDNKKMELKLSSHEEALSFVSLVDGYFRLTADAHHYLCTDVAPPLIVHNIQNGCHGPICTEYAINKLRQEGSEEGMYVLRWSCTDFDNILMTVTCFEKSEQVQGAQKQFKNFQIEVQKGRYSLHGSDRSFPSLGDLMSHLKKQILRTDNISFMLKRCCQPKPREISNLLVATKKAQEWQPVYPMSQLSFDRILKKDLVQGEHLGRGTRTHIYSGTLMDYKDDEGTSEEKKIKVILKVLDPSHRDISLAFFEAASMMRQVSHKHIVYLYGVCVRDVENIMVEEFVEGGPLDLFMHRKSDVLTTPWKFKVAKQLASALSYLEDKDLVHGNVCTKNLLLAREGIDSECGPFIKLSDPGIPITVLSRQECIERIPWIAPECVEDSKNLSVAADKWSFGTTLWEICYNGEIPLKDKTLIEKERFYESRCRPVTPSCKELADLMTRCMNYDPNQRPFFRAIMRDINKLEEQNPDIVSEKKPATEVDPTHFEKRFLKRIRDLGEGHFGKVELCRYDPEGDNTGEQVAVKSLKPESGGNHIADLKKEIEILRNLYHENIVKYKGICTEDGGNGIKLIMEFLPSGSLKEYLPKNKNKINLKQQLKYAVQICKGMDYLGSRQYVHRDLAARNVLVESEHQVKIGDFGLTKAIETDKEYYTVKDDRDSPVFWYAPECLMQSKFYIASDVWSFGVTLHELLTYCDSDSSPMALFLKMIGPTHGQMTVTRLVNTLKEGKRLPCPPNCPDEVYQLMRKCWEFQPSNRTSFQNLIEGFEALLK", "test": "In vitro kinase activity experiment, JAK1", "format": "biochemical", "protocol": "Buffer solution ([…], pH 7.0, 0.2 mm EDTA, 10 mM mncl2), kinase to be tested, substrate of kinase to be tested, 10 mM magnesium acetate and γ33P-ATP solution, and compounds with different concentrations were added to a reaction tube in turn, then MgATP was added to initiate the enzyme reaction process, and incubated at room temperature for 40 min. Then, the reaction was terminated with 5 μl of […], and 10 μl of the reaction solution was titrated onto the Filtermat A membrane, washed with 75 mM phosphate solution for three times, each time for 5 min., and then washed with methanol once. Finally, the Filtermat A membrane was dried and the scintillation count was carried out."}, "[2]": {"test_system": "Ba/F3-EpoR-JAK2V617F cells", "test": "Ba/F3-EpoR-JAK2V617F-driven malignant tumor mouse model", "format": "in vivo, Babl/c-nude mice", "conditions": "oral twice a day", "protocol": "Babl/c-nude mice (Beijing Huafukang Biotechnology Co., Ltd.) were received and acclimated to the environment until these mice were normalized in diet and activity, and the modeling began. Ba/F3-EpoR-JAK2V617F cells (State Key Laboratory of Biotherapy, Sichuan University) were routinely incubated and grew to 80% fusion degree. Then the cells were centrifuged at 1000 rpm for 3 min., collected, resuspended by PBS and counted by a cell counter; while the survival rate of the cells was calculated. Only when the proportion of living cells exceeds 90%, can the cells be used in the experiment, with the cell concentration adjusted to 1×10^7 cells/mL. After the cells were collected, the cell suspension was pre-cooled on ice. Each mouse was inoculated as per 1.0×10^6, and batch induction modeling was carried out."}},
  "note": "Read-outs that look alike come from different tables or passages of the source.",
  "data": [
    {"smiles": "Cc1cnc(Nc2ccc(N3CCC(N(C)CCO)CC3)c(F)c2)nc1-c1cnn(C(C)C)c1", "note": "[CLJ-44, 5-methyl-N-(3-fluoro-4-(4-N-hydroxyethyl-4-N-methylaminopiperidine-1-yl)phenyl)-4-(1-isopropyl-1H-pyrazole-4-yl) pyrimidine-2-amine]", "values": [
      {"measurement": "IC50", "setting": "[1]", "result": "10 to 100", "unit": "nM"},
      {"measurement": "Kinase activity @ 500 nM (%) JAK2", "setting": "JAK2", "result": 100, "unit": "%"},
      {"measurement": "IC50", "setting": "SET-2 cells (JAK2 V617F)", "result": "10 to 100", "unit": "nM"},
      {"measurement": "Tumor inhibition rate (%)", "setting": "SET-2 cells; 30 mg/kg", "result": 66, "unit": "%"},
      {"measurement": "Tumor inhibition rate (%)", "setting": "SET-2 cells; 60 mg/kg", "result": 85, "unit": "%"},
      {"measurement": "tolerability, effect on body weight", "setting": "SET-2 cells; mouse, in vivo", "result": "well tolerated and has no adverse effect on body weight"},
      {"measurement": "Tumor inhibition rate (%)", "setting": "MV4-11 cells; 30 mg/kg", "result": 58, "unit": "%"},
      {"measurement": "Tumor inhibition rate (%)", "setting": "MV4-11 cells; 60 mg/kg", "result": 93, "unit": "%"},
      {"measurement": "tolerability, effect on body weight", "setting": "MV4-11 cells; mouse, in vivo", "result": "well tolerated and has no adverse effect on body weight"},
      {"measurement": "IC50", "setting": "JAK1", "result": 37, "unit": "nM"},
      {"measurement": "inhibition of spleen growth", "setting": "[2]; 7.5 mg/Kg", "result": 18.74, "unit": "%"},
      {"measurement": "inhibition of spleen growth", "setting": "[2]; 15 mg/Kg", "result": 35.67, "unit": "%"},
      {"measurement": "inhibition of spleen growth", "setting": "[2]; 30 mg/Kg", "result": 79.79, "unit": "%"},
      {"measurement": "inhibition of spleen growth", "setting": "[2]; 45 mg/Kg", "result": 101.08, "unit": "%"},
      {"measurement": "spleen weight", "setting": "[2]; 45 mg/Kg", "result": "restored to the weight of a normal mouse"}
    ]}
  ]
}
